Measured values as given in publication PMC12090182, “Repurposing of the RIPK1-Selective Benzo[1,4]oxazepin-4-one Scaffold for the Development of a Type III LIMK1/2 Inhibitor” (ACS Chemical Biology, 2025).

How the values were obtained:
Assay in all cases: scanMAX KINOMEscan (Eurofins)
Format in all cases: binding
[1] = biological target: BMPR1A (Homo sapiens, UniProt P36894); conditions: 1000 nM, read-out: Percent Control
Text: (§1) Supplement cb5c00097_si_002.xlsx, sheet "Table S6 (Eurofins Selectivity)" | column: Percent Control

[2] = biological target: PIM1 (Homo sapiens, UniProt P11309); conditions: 1000 nM, read-out: Percent Control
Text: as §1

[3] = biological target: CAMK1G (Homo sapiens, UniProt Q96NX5); conditions: 1000 nM, read-out: Percent Control
Text: as §1

[4] = biological target: RIOK3 (Homo sapiens, UniProt O14730); conditions: 1000 nM, read-out: Percent Control
Text: as §1

[5] = biological target: CDK2 (Homo sapiens, UniProt P24941); conditions: 1000 nM, read-out: Percent Control
Text: as §1

[6] = biological target: LYN (Homo sapiens, UniProt P07948); conditions: 1000 nM, read-out: Percent Control
Text: as §1

[7] = biological target: ERBB3 (Homo sapiens, UniProt P21860); conditions: 1000 nM, read-out: Percent Control
Text: as §1

[8] = biological target: CDKL2 (Homo sapiens, UniProt Q92772); conditions: read-out: Percent Control
Text: as §1

[9] = biological target: CAMK2A (Homo sapiens, UniProt Q9UQM7); conditions: 1000 nM, read-out: Percent Control
Text: as §1

[10] = biological target: PFTK1 (Homo sapiens, UniProt O94921); conditions: 1000 nM, read-out: Percent Control
Text: as §1

[11] = biological target: CSK (Homo sapiens, UniProt P41240); conditions: 1000 nM, read-out: Percent Control
Text: as §1

[12] = biological target: PRKD3 (Homo sapiens, UniProt O94806); conditions: 1000 nM, read-out: Percent Control
Text: as §1

[13] = biological target: CSNK1G1 (Homo sapiens, UniProt Q9HCP0); conditions: 1000 nM, read-out: Percent Control
Text: as §1

[14] = biological target: CDK7 (Homo sapiens, UniProt P50613); conditions: read-out: Percent Control
Text: as §1

[15] = biological target: CSNK1D (Homo sapiens, UniProt P48730); conditions: 1000 nM, read-out: Percent Control
Text: as §1

[16] = biological target: GRK7 (Homo sapiens, UniProt Q8WTQ7); conditions: 1000 nM, read-out: Percent Control
Text: as §1

[17] = biological target: TXK (Homo sapiens, UniProt P42681); conditions: 1000 nM, read-out: Percent Control
Text: as §1

[18] = biological target: SgK110 (Homo sapiens, UniProt P0C264); conditions: compound concentration 100 nM; Entrez SgK110; read-out: Percent Control
Text: as §1

[19] = biological target: ICK (Homo sapiens, UniProt Q9UPZ9); conditions: 1000 nM, read-out: Percent Control
Text: as §1

[20] = biological target: SRPK3 (Homo sapiens, UniProt Q9UPE1); conditions: compound concentration 100 nM; Entrez SRPK3; read-out: Percent Control
Text: as §1

[21] = biological target: IKK-epsilon (Homo sapiens, UniProt Q14164); conditions: 1000 nM, read-out: Percent Control
Text: as §1

[22] = biological target: PKN1 (Homo sapiens, UniProt Q16512); conditions: read-out: Percent Control
Text: as §1

[23] = biological target: NEK2 (Homo sapiens, UniProt P51955); conditions: compound concentration 100 nM; Entrez NEK2; read-out: Percent Control
Text: as §1

[24] = biological target: NEK9 (Homo sapiens, UniProt Q8TD19); conditions: 1000 nM, read-out: Percent Control
Text: as §1

[25] = biological target: AKT3 (Homo sapiens, UniProt Q9Y243); conditions: read-out: Percent Control
Text: as §1

[26] = biological target: SNARK (Homo sapiens, UniProt Q9H093); conditions: 1000 nM, read-out: Percent Control
Text: as §1

[27] = biological target: S6K1 (Homo sapiens, UniProt P23443); conditions: compound concentration 100 nM; Entrez RPS6KB1; read-out: Percent Control
Text: as §1

[28] = biological target: PFPK5(P.falciparum) (Plasmodium falciparum, UniProt P61075); conditions: 1000 nM, read-out: Percent Control
Text: as §1

[29] = biological target: AMPK-alpha2 (Homo sapiens, UniProt P54646); conditions: read-out: Percent Control
Text: as §1

[30] = biological target: MST3 (Homo sapiens, UniProt Q9Y6E0); conditions: 1000 nM, read-out: Percent Control
Text: as §1

[31] = biological target: FGFR1 (Homo sapiens, UniProt P11362); conditions: read-out: Percent Control
Text: as §1

[32] = biological target: DMPK (Homo sapiens, UniProt Q09013); conditions: read-out: Percent Control
Text: as §1

[33] = biological target: ROCK2 (Homo sapiens, UniProt O75116); conditions: 1000 nM, read-out: Percent Control
Text: as §1

[34] = biological target: MYLK (Homo sapiens, UniProt Q15746); conditions: 1000 nM, read-out: Percent Control
Text: as §1

[35] = biological target: OSR1 (Homo sapiens, UniProt O95747); conditions: 1000 nM, read-out: Percent Control
Text: as §1

[36] = biological target: SGK2 (Homo sapiens, UniProt Q9HBY8); conditions: 1000 nM, read-out: Percent Control
Text: as §1

[37] = biological target: MAP3K2 (Homo sapiens, UniProt Q9Y2U5); conditions: compound concentration 100 nM; Entrez MAP3K2; read-out: Percent Control
Text: as §1

[38] = biological target: ACVR1B (Homo sapiens, UniProt P36896); conditions: 1000 nM, read-out: Percent Control
Text: as §1

PKN1, sequence (Q16512 whole entry): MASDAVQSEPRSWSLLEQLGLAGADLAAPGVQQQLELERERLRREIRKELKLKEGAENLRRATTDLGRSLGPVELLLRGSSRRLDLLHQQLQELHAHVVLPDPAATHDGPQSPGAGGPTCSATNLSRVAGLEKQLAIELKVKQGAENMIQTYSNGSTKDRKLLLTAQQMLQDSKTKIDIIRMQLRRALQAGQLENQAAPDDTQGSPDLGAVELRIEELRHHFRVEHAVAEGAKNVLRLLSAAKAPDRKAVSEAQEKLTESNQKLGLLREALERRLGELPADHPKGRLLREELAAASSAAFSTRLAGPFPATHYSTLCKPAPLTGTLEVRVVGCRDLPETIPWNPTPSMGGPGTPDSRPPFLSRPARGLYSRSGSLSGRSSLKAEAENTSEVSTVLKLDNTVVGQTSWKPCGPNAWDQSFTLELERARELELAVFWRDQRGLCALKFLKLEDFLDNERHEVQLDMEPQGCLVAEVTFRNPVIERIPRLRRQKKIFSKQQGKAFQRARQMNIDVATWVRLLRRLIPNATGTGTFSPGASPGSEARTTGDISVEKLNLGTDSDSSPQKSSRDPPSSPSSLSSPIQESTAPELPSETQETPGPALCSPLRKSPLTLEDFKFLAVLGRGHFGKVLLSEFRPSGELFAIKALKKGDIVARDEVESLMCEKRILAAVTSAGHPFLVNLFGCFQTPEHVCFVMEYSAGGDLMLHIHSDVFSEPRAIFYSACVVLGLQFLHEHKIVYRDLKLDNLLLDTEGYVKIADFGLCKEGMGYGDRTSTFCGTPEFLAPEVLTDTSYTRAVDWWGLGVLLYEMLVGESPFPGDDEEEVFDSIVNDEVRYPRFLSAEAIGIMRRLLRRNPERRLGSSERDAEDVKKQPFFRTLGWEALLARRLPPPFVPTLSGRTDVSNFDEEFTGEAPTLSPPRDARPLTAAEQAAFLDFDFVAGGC
CDK7, sequence (P50613 whole entry): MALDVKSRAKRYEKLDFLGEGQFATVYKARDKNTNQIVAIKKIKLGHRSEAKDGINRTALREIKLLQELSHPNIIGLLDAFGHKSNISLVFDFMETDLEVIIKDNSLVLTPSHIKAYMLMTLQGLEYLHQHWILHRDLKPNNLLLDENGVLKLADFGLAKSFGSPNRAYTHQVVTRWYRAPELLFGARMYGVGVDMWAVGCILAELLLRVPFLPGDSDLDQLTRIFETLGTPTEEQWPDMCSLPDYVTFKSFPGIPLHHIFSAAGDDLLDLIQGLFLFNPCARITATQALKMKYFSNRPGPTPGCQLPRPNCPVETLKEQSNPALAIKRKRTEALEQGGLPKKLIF
AMPK-alpha2, sequence (P54646 whole entry): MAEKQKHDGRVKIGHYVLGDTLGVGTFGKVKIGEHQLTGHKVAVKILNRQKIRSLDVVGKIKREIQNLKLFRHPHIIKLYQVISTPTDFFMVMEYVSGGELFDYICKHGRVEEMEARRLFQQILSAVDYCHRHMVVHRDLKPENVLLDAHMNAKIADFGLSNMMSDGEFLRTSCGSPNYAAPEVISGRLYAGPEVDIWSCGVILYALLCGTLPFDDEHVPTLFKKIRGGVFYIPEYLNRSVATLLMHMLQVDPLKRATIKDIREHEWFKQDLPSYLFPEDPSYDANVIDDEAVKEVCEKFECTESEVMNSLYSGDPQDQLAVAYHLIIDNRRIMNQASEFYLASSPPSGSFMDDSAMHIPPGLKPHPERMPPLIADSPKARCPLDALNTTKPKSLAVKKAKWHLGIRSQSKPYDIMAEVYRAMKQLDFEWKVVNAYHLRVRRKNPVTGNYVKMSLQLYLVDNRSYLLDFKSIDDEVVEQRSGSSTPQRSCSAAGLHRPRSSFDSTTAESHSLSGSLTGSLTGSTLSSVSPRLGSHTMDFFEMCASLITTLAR
DMPK, sequence (Q09013 whole entry): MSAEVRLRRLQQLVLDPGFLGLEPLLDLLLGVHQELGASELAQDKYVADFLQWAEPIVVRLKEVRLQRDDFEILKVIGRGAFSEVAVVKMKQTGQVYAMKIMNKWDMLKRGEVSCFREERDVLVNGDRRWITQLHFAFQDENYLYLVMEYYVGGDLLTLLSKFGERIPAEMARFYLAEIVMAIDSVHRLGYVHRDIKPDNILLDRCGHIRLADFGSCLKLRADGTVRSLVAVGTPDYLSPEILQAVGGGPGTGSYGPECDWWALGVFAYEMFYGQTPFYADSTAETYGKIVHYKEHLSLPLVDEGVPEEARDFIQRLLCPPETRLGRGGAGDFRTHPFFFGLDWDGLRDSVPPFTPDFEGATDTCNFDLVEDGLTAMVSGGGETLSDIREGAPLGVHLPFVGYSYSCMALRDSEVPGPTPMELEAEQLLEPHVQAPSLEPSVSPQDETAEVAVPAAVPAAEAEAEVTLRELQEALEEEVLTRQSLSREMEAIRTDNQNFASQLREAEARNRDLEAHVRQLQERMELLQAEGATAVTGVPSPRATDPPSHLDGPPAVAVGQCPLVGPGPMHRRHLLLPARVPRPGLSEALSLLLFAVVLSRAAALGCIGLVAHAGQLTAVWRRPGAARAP
AKT3, sequence (Q9Y243 whole entry): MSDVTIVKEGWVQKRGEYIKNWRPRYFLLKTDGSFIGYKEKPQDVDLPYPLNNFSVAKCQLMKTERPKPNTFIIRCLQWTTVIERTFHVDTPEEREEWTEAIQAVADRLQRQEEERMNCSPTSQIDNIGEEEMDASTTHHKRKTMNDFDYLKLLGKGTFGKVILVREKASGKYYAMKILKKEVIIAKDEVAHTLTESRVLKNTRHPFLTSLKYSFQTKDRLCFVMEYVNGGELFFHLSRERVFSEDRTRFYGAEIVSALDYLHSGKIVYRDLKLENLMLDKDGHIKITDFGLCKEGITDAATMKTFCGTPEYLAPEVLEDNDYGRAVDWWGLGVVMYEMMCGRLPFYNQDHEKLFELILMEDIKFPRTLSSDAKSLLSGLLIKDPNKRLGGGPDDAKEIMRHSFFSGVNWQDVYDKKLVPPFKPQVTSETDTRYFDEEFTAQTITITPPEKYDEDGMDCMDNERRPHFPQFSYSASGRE
FGFR1, sequence (P11362 22-822): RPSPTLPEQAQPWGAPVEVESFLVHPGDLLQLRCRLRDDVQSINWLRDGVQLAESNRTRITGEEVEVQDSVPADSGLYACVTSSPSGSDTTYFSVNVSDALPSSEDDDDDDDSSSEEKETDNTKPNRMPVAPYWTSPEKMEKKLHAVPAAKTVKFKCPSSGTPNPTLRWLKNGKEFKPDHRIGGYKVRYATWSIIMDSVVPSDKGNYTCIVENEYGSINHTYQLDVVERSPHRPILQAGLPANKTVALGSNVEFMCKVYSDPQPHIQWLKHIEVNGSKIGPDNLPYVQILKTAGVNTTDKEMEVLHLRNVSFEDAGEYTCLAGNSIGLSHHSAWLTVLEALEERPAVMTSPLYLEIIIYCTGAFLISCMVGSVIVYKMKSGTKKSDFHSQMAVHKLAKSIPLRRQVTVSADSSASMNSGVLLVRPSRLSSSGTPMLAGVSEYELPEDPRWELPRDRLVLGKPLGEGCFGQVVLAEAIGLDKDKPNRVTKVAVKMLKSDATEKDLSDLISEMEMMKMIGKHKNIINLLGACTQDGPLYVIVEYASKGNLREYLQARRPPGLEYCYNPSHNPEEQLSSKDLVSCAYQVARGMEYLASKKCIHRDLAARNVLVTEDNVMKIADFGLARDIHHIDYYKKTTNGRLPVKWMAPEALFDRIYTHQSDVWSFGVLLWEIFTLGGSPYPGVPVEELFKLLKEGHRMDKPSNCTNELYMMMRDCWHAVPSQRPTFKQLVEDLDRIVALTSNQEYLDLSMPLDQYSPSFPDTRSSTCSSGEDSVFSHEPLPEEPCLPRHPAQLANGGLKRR
CDKL2, sequence (Q92772 whole entry): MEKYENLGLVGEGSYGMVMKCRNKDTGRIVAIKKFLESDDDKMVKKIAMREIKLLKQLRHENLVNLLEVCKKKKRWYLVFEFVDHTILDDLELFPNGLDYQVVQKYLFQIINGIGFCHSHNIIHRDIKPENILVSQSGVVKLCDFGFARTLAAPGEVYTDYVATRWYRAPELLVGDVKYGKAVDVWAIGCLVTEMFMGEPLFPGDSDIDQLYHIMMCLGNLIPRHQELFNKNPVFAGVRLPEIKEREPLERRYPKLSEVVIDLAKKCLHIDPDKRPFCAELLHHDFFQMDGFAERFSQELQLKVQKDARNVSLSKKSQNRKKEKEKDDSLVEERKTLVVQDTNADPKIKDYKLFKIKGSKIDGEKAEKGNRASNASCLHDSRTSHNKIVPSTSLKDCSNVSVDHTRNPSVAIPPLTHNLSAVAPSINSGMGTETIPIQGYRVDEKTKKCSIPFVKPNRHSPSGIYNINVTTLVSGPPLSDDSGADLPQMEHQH
CAMK1G, sequence (Q96NX5 whole entry): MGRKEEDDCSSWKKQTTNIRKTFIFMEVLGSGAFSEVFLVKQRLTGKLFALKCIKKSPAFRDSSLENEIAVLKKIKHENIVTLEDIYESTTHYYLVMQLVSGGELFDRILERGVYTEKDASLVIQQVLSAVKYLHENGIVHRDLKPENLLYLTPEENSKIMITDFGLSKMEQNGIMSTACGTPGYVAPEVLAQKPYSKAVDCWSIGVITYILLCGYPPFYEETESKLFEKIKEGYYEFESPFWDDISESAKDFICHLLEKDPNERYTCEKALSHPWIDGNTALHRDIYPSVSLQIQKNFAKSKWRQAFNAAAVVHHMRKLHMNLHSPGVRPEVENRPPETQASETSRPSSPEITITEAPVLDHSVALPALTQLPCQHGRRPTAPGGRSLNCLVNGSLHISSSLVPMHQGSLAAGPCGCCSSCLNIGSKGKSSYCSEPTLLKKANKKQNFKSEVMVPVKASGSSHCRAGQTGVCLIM
PFPK5(P.falciparum), sequence (P61075 whole entry): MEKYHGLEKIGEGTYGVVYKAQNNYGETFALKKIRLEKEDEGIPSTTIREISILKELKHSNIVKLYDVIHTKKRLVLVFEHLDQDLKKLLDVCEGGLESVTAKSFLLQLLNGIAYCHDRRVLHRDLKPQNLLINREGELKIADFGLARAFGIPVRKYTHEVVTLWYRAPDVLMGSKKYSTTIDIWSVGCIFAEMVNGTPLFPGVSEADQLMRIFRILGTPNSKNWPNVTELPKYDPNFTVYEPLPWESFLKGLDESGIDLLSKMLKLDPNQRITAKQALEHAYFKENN

CN1C(=O)[C@@H](N2CCc3c(nn(Cc4ccccc4)c3C(N)=O)C2=O)COc2cc(Cl)ccc21 [Compound 10, (S)-2-benzyl-6-(8-chloro-5-methyl-4-oxo-2,3,4,5-tetrahydrobenzo[b][1,4]oxazepin-3-yl)-7-oxo-4,5,6,7-tetrahydro-2H-pyrazolo[3,4-c]pyridine-3-carboxamide]
remaining binding at 1 µM [1]: 80%
remaining binding at 1 µM [2]: 78%
remaining binding at 1 µM [3]: 88%
remaining binding at 1 µM [4]: 77%
remaining binding at 1 µM [5]: 92%
remaining binding at 1 µM [6]: 77%
remaining binding at 1 µM [7]: 85%
remaining binding at 1 µM ([8]; 1000 nM): 100%
remaining binding at 0.1 µM ([8]; compound concentration 100 nM, Entrez CDKL2): 100%
remaining binding at 1 µM [9]: 90%
remaining binding at 1 µM [10]: 79%
remaining binding at 1 µM [11]: 97%
remaining binding at 1 µM [12]: 92%
remaining binding at 1 µM [13]: 91%
remaining binding at 1 µM ([14]; 1000 nM): 99%
remaining binding at 0.1 µM ([14]; compound concentration 100 nM, Entrez CDK7): 72%
remaining binding at 1 µM [15]: 87%
remaining binding at 1 µM [16]: 98%
remaining binding at 1 µM [17]: 86%
remaining binding at 0.1 µM [18]: 93%
remaining binding at 1 µM [19]: 85%
remaining binding at 0.1 µM [20]: 100%
remaining binding at 1 µM [21]: 75%
remaining binding at 1 µM ([22]; 1000 nM): 98%
remaining binding at 0.1 µM ([22]; compound concentration 100 nM, Entrez PKN1): 86%
remaining binding at 0.1 µM [23]: 82%
remaining binding at 1 µM [24]: 92%
remaining binding at 1 µM ([25]; 1000 nM): 100%
remaining binding at 0.1 µM ([25]; compound concentration 100 nM, Entrez AKT3): 100%
remaining binding at 1 µM [26]: 92%
remaining binding at 0.1 µM [27]: 76%
remaining binding at 1 µM [28]: 66%
remaining binding at 1 µM ([29]; 1000 nM): 100%
remaining binding at 0.1 µM ([29]; compound concentration 100 nM, Entrez PRKAA2): 100%
remaining binding at 1 µM [30]: 96%
remaining binding at 1 µM ([31]; 1000 nM): 100%
remaining binding at 0.1 µM ([31]; compound concentration 100 nM, Entrez FGFR1): 88%
remaining binding at 1 µM ([32]; 1000 nM): 100%
remaining binding at 0.1 µM ([32]; compound concentration 100 nM, Entrez DMPK): 80%
remaining binding at 1 µM [33]: 74%
remaining binding at 1 µM [34]: 86%
remaining binding at 1 µM [35]: 74%
remaining binding at 1 µM [36]: 95%
remaining binding at 0.1 µM [37]: 100%
remaining binding at 1 µM [38]: 86%
